The IC50 is the concentration that gives 50% inhibition.

Chain of PD-1/PD-L1 protein/protein interaction (Q9NZQ7 19-238): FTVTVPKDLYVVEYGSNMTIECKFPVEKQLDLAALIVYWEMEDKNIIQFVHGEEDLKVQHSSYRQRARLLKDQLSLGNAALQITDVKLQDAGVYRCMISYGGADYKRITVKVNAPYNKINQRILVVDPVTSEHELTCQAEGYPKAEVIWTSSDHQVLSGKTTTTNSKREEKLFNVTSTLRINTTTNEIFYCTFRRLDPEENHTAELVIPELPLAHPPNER

The assay concerns the target PD-1/PD-L1 protein/protein interaction (Homo sapiens (Human), UniProt Q9NZQ7). The experiment in a line: PD-1/PD-L1 Homogeneous Time-Resolved Fluorescence (HTRF) Binding Assay. Particulars: recombinant human PD-L1 (19-238) His-tag, human PD-1 (25-167) Fc tag; 25° C., PBS pH 7.4. The protocol:
Example A. PD-1/PD-L1 Homogeneous Time-Resolved Fluorescence (HTRF) Binding Assay
The assays were conducted in a standard black 384-well polystyrene plate with a final volume of 20 μL. Inhibitors were first serially diluted in DMSO and then added to the plate wells before the addition of other reaction components. The final concentration of DMSO in the assay was 1%. The assays were carried out at 25° C. in the PBS buffer (pH 7.4) with 0.05% Tween-20 and 0.1% BSA. Recombinant human PD-L1 protein (19-238) with a His-tag at the C-terminus was purchased from AcroBiosystems (PD1-H5229). Recombinant human PD-1 protein (25-167) with Fc tag at the C-terminus was also purchased from AcroBiosystems (PD1-H5257). PD-L1 and PD-1 proteins were diluted in the assay buffer and […] was added to the plate well. Plates were centrifuged and proteins were preincubated with inhibitors for 40 minutes. The incubation was followed by the addition of 10 μL of HTRF detection buffer supplemented with Europium cryptate-labeled anti-human IgG (PerkinElmer-AD0212) specific for Fc and anti-His antibody conjugated to SureLight®-Allophycocyanin (APC, PerkinElmer-AD0059H). After centrifugation, the plate was incubated at 25° C. for 60 min. before reading on a PHERAstar FS plate reader (665 nm/620 nm ratio). Final concentrations in the assay were […], 10 nM PD-L1, 1 nM europium anti-human IgG and 20 nM anti-His-Allophycocyanin. IC50 determination was performed by fitting the curve of percent control activity versus the log of the inhibitor concentration using the GraphPad Prism 5.0 software.
Background: Time-resolved FRET reads energy transfer from a long-lived donor to a nearby acceptor.
As to `CC[C@H](CO)NC1CCN(c2cccc(-c3ccccc3)c2C)CC1` [Example 35, (R)-2-(1-(2-methylbiphenyl-3-yl)piperidin-4-ylamino)butan-l-ol], the IC50 was not above 100 nM. `Cc1c(-c2ccccc2)cccc1N1CCC(NC2CCC(C(=O)O)(c3ccc(Cl)cc3)CC2)CC1` (single isomer, unassigned) [47 (peak 1), 1-(4-chlorophenyl)-4-(1-(2-methylbiphenyl-3-yl)piperidin-4-ylamino)cyclohexane carboxylic acid]: the IC50 was not above 100 nM. In the case of `Cc1c(-c2ccccc2)cccc1N1CCC(NCC2(CO)CC2)CC1` [Example 26, (1-((1-(2-methylbiphenyl-3-yl)piperidin-4-ylamino)methyl)cyclopropyl)methanol] it was not above 100 nM. In the case of `Cc1c(-c2ccccc2)cccc1N1CCC(NCC(=O)N2CCN(C(C)C)CC2)CC1` [Example 27, 1-(4-isopropylpiperazin-1-yl)-2-(1-(2-methylbiphenyl-3-yl)piperidin-4-ylamino)ethanone] it was 100 to 500 nM; in that of `Cc1c(-c2ccccc2)cccc1N1CCC(NC2CCCC(C(=O)O)C2)CC1` (single isomer, unassigned) [46 (peak 2), 3-(1-(2-methylbiphenyl-3-yl)piperidin-4-ylamino)cyclohexane carboxylic acid], not above 100 nM. On to `COc1ccc(C2(CNC3CCN(c4cccc(-c5ccc6c(c5)OCCO6)c4C#N)CC3)CCOCC2)cc1` [Example 11, 2-(2,3-dihydrobenzo[b][1,4]dioxin-6-yl)-6-(4-((4-(4-methoxyphenyl)tetrahydro-2H-pyran-4-yl)methylamino)piperidin-1-yl)benzonitrile], for which the concentration for half-maximal inhibition (IC50) is not above 100 nM.

As for `Cc1c(-c2ccccc2)cccc1N1CCC(NC2CC(C(=O)O)C2)CC1` (centres unmarked) [Example 45, 3-(1-(2-methylbiphenyl-3-yl)piperidin-4-ylamino)cyclobutane-carboxylic acid], the IC50 is not above 100 nM. With `Cc1c(-c2ccccc2)cccc1N1CCC(N[C@H]2CCC[C@H]2CO)CC1` (relative stereo) [Example 34, (cis-2-(1-(2-methylbiphenyl-3-yl)piperidin-4-ylamino)cyclopentyl) methanol], the half-maximal inhibitory concentration (IC50) was not above 100 nM. In the case of `N#Cc1c(-c2ccc3c(c2)OCCO3)cccc1N1CCC(N2CCC(CO)C2)CC1` (centres unmarked) [Example 25, 2-(2,3-dihydrobenzo[b][1,4]dioxin-6-yl)-6-(4-(3-(hydroxymethyl)pyrrolidin-1-yl)piperidin-1-yl)benzonitrile] it was not above 100 nM; in that of `N#Cc1c(-c2ccc3c(c2)OCCO3)cccc1N1CCC(NC2CCCCC2)CC1` [Example 20, 2-(4-(cyclohexylamino)piperidin-1-yl)-6-(2,3-dihydrobenzo[b][1,4]dioxin-6-yl)benzonitrile], not above 100 nM.

Take `Cc1c(-c2ccccc2)cccc1N1CCC(NC2CCOC2)CC1` (racemic) [Example 42, 1-(2-methylbiphenyl-3-yl)-N-(tetrahydrofuran-3-yl)piperidin-4-amine]: the IC50 is not above 100 nM. `Cc1c(-c2ccccc2)cccc1N1CCC(NC2CCC(C#N)CC2)CC1` (single isomer, unassigned) [40 (peak 1), 4-(1-(2-methylbiphenyl-3-yl)piperidin-4-ylamino)cyclohexane-carbonitrile]: the IC50 is not above 100 nM. With `Cc1c(-c2ccccc2)cccc1N1CCC(NCCc2cnn(C)c2)CC1` [Example 31, N-(2-(1-methyl-1H-pyrazol-4-yl)ethyl)-1-(2-methylbiphenyl-3-yl)piperidin-4-amine], the IC50 is not above 100 nM. As to `Cc1c(-c2ccccc2)cccc1N1CCC(N[C@H]2CC[C@H](O)CC2)CC1` [Example 30, trans-4-(1-(2-methylbiphenyl-3-yl)piperidin-4-ylamino)cyclohexanol], the IC50 was not above 100 nM. Turning to `Cc1c(-c2ccccc2)cccc1N1CCC(NC2CC(CO)C2)CC1` (centres unmarked) [Example 43, (3-(1-(2-methylbiphenyl-3-yl)piperidin-4-ylamino)cyclobutyl) methanol], the IC50 is not above 100 nM.

For the compound `N#Cc1c(-c2ccc3c(c2)OCCO3)cccc1N1CCC(NC2CCCOC2)CC1` (centres unmarked) [Example 16, 2-(2,3-dihydrobenzo[b][1,4]dioxin-6-yl)-6-(4-(tetrahydro-2H-pyran-3-ylamino)piperidin-1-yl)benzonitrile], the half-inhibitory concentration (IC50) is not above 100 nM.

On to `COc1cccc(-c2cccc(N3CCC(N4CCCC4)CC3)c2C#N)c1` [Example 48, 3′-methoxy-3-(4-(pyrrolidin-1-yl)piperidin-1-yl)biphenyl-2-carbonitrile], for which the IC50 lay in the range of 100 to 500 nM. In the case of `Cc1c(-c2ccccc2)cccc1N1CCC(NC2CC2)CC1` [Example 36, N-cyclopropyl-1-(2-methylbiphenyl-3-yl)piperidin-4-amine] it was not above 100 nM; in that of `N#Cc1c(-c2ccc3c(c2)OCCO3)cccc1N1CCC(NCC2(CO)CC2)CC1` [Example 4, 2-(2,3-dihydrobenzo[b][1,4]dioxin-6-yl)-6-(4-((l-(hydroxymethyl)cyclopropyl)methylamino)piperidin-1-yl)benzonitrile], not above 100 nM. In the case of `Cn1cc(CCNC2CCN(c3cccc(-c4ccc5c(c4)OCCO5)c3C#N)CC2)cn1` [Example 5, 2-(2,3-dihydrobenzo[b][1,4]dioxin-6-yl)-6-(4-(2-(1-methyl-1H-pyrazol-4-yl)ethylamino)piperidin-1-yl)benzonitrile] it was not above 100 nM; in that of `Cc1c(-c2ccccc2)cccc1N1CCC(N[C@H]2C[C@@H](O)C2)CC1` [Example 29, cis-3-(1-(2-methylbiphenyl-3-yl)piperidin-4-ylamino)cyclobutanol], not above 100 nM; in that of `Cc1c(-c2ccccc2)cccc1N1CCC(NC2CCC(C(=O)O)CC2)CC1` (single isomer, unassigned) [41 (peak 2), 4-(1-(2-methylbiphenyl-3-yl)piperidin-4-ylamino)cyclohexane-carboxylic acid], not above 100 nM.

For the compound `N#Cc1c(-c2ccc3c(c2)OCCO3)cccc1N1CCC(N[C@H]2C[C@H](CO)C2)CC1` [Example 23, 2-(2,3-dihvdrobenzo[b][1,4]dioxin-6-yl)-6-(4-(trans-3-(hydroxymethyl)cyclobutyl-amino)piperidin-1-yl)benzonitrile], the IC50 was not above 100 nM.
